Positions of bridges follow the written chain, without caps; N, C: chain ends. Non-standard residues stand in square brackets, D forms with d. Residues, ends and D or L forms follow the SMILES beside them. Abu = CC[C@H](N)C(=O)O
Target: Complement C3 (Homo sapiens, UniProt P01024)
Test: Inhibitory concentration for human complement component C3 activation

Complement C3, sequence (P01024 23-667 limits assumed): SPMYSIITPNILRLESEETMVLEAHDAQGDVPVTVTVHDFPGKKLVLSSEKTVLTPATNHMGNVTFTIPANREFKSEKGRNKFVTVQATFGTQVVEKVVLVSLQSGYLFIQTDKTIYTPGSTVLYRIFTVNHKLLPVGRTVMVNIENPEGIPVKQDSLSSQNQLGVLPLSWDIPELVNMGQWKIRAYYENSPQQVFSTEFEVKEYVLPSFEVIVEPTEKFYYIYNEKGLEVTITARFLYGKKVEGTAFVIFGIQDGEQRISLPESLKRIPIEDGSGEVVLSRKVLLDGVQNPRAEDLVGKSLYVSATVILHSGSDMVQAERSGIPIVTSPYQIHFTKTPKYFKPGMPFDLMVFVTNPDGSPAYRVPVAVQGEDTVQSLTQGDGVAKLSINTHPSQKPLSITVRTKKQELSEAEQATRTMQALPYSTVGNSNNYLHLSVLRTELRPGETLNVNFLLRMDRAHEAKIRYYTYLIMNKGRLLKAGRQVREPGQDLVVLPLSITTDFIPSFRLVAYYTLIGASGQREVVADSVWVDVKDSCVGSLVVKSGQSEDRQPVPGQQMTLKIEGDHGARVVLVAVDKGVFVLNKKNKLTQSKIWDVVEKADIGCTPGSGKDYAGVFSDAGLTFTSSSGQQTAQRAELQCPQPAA
Complement C3, sequence (P01024 672-1663 limits assumed): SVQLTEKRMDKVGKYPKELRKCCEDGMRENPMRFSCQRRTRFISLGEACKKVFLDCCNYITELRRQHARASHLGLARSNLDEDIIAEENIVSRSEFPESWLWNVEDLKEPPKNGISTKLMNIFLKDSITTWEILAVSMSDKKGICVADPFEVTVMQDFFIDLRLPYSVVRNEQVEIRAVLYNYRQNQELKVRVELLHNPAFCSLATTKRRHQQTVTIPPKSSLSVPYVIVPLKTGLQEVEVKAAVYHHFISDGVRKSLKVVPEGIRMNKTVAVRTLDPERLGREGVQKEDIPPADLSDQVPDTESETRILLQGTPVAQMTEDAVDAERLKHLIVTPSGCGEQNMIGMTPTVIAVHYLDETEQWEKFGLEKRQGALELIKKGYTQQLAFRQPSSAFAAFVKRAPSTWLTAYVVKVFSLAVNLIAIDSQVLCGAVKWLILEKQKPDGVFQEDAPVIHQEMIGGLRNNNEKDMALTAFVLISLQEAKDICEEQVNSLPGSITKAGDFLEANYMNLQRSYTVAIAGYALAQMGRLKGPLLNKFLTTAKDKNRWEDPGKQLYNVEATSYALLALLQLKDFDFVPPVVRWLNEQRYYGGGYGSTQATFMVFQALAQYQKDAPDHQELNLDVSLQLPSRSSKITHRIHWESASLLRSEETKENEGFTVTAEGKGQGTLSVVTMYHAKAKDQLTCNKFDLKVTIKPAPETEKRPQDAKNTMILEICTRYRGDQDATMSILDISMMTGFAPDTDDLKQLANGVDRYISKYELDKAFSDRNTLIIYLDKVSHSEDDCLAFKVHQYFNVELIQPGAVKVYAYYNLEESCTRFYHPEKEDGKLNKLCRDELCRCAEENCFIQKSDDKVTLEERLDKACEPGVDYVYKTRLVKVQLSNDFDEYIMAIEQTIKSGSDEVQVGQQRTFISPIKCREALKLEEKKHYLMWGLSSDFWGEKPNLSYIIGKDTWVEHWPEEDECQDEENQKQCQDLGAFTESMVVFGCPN

IC50	SMILES
> 1000 µM	CC[C@H](C)[C@H](NC(C)=O)C(=O)N[C@H]1CSSC[C@@H](C(N)=O)NC(=O)[C@H](CCCNC(=N)N)NC(=O)[C@H](Cc2cnc[nH]2)NC(=O)[C@H](Cc2cnc[nH]2)NC(=O)CNC(=O)[C@H](Cc2c[nH]c3ccccc23)NC(=O)[C@@H](CC(=O)O)NC(=O)[C@H](CCC(N)=O)NC(=O)[C@H](C(C)C)NC(=O)[C@H](C(C)C)NC1=O
0.8 µM	CC[C@H](C)[C@H](NC(C)=O)C(=O)N[C@H]1CSSC[C@@H](C(=O)N[C@H](C(N)=O)[C@@H](C)O)NC(=O)[C@H](CCCN=C(N)N)NC(=O)[C@H](Cc2c[nH]cn2)NC(=O)[C@H](C)NC(=O)CNC(=O)[C@H](Cc2c[nH]c3ccccc23)NC(=O)[C@H](CC(=O)O)NC(=O)[C@H](CCC(N)=O)NC(=O)[C@H](Cc2csc3ccccc23)NC(=O)[C@H](C(C)C)NC1=O
2.2 µM	CC[C@H](C)[C@H](NC(C)=O)C(=O)N[C@H]1CSSC[C@@H](C(=O)N[C@H](C(N)=O)[C@@H](C)O)NC(=O)[C@H](CCCNC(=N)N)NC(=O)[C@H](Cc2cnc[nH]2)NC(=O)[C@H](Cc2cnc[nH]2)NC(=O)CNC(=O)[C@H](Cc2c[nH]c3ccccc23)NC(=O)[C@H](CC(=O)O)NC(=O)[C@H](CCC(N)=O)NC(=O)[C@H](Cc2c[nH]c3ccccc23)NC(=O)[C@H](C(C)C)NC1=O
> 1000 µM	CC[C@H](C)[C@H](NC(=O)[C@@H]1CSSC[C@H](NC(=O)[C@@H](NC(C)=O)[C@@H](C)CC)C(=O)N[C@@H](C(C)C)C(=O)N[C@H](Cc2ccc(O)cc2)C(=O)N[C@@H](CCC(N)=O)C(=O)N[C@@H](CC(=O)O)C(=O)N[C@@H](Cc2c[nH]c3ccccc23)C(=O)NCC(=O)N[C@@H](C)C(=O)N[C@@H](Cc2c[nH]cn2)C(=O)N[C@@H](CCCN=C(N)N)C(=O)N1)C(N)=O
0.6 µM	CC[C@H](C)[C@H](NC(C)=O)C(=O)N[C@H]1CSSC[C@@H](C(=O)N[C@H](C(N)=O)[C@@H](C)O)NC(=O)[C@H](CCCNC(=N)N)NC(=O)[C@H](Cc2cnc[nH]2)NC(=O)[C@H](C)NC(=O)CNC(=O)[C@H](Cc2c[nH]c3ccccc23)NC(=O)[C@H](CC(=O)O)NC(=O)[C@H](CCC(N)=O)NC(=O)[C@H](Cc2ccc(C(=O)c3ccccc3)cc2)NC(=O)[C@H](C(C)C)NC1=O
> 1000 µM	CC[C@H](C)[C@H](NC(C)=O)C(=O)N[C@H]1CSSC[C@@H](C(N)=O)NC(=O)[C@H](CCCN=C(N)N)NC(=O)[C@H](Cc2c[nH]cn2)NC(=O)[C@H](Cc2c[nH]cn2)NC(=O)CNC(=O)[C@H](Cc2c[nH]c3ccccc23)NC(=O)[C@H](CC(=O)O)NC(=O)[C@@H](CCC(N)=O)NC(=O)[C@H](C(C)C)NC(=O)[C@H](C(C)C)NC1=O
1.5 µM	CC[C@H](C)[C@H](NC(C)=O)C(=O)N[C@H]1CSSC[C@@H](C(=O)N[C@H](C(=O)O)[C@@H](C)O)NC(=O)[C@H](CCCNC(=N)N)NC(=O)[C@H](Cc2cnc[nH]2)NC(=O)[C@H](C)NC(=O)CNC(=O)[C@H](Cc2c[nH]c3ccccc23)NC(=O)[C@H](CC(=O)O)NC(=O)[C@H](CCC(N)=O)NC(=O)[C@H](C2Cc3ccccc3C2)NC(=O)[C@H](C(C)C)NC1=O
9.6 µM	CC[C@H](C)[C@H](NC(=O)[C@@H]1CSSC[C@H](NC(=O)[C@@H](NC(C)=O)[C@@H](C)CC)C(=O)N[C@@H](C(C)C)C(=O)N[C@@H](Cc2ccc(OP(=O)(O)O)cc2)C(=O)N[C@@H](CCC(N)=O)C(=O)N[C@@H](CC(=O)O)C(=O)N[C@@H](Cc2c[nH]c3ccccc23)C(=O)NCC(=O)N[C@@H](C)C(=O)N[C@@H](Cc2c[nH]cn2)C(=O)N[C@@H](CCCN=C(N)N)C(=O)N1)C(N)=O
> 1000 µM	CC[C@H](C)[C@H](NC(=O)[C@@H]1CSSC[C@H](NC(=O)[C@@H](NC(C)=O)[C@@H](C)CC)C(=O)N[C@@H](C(C)C)C(=O)N[C@H](Cc2c[nH]c3ccccc23)C(=O)N[C@@H](CCC(N)=O)C(=O)N[C@@H](CC(=O)O)C(=O)N[C@@H](Cc2c[nH]c3ccccc23)C(=O)NCC(=O)N[C@@H](C)C(=O)N[C@@H](Cc2c[nH]cn2)C(=O)N[C@@H](CCCN=C(N)N)C(=O)N1)C(N)=O
3.8 µM	CC[C@H](C)[C@H](NC(C)=O)C(=O)N[C@H]1CSSC[C@@H](C(=O)N[C@H](C(N)=O)[C@@H](C)O)NC(=O)[C@H](CCCN=C(N)N)NC(=O)[C@H](Cc2c[nH]cn2)NC(=O)[C@H](C)NC(=O)CNC(=O)[C@H](Cc2c[nH]c3ccccc23)NC(=O)[C@H](CC(=O)O)NC(=O)[C@H](CCC(N)=O)NC(=O)[C@H](Cc2ccc(O)cc2)NC(=O)[C@H](C(C)C)NC1=O
1.8 µM	CC[C@H](C)[C@H](NC(C)=O)C(=O)N[C@H]1CSSC[C@@H](C(=O)N[C@H](C(=O)O)[C@@H](C)O)NC(=O)[C@H](CCCN=C(N)N)NC(=O)[C@H](Cc2c[nH]cn2)NC(=O)[C@H](C)NC(=O)CNC(=O)[C@H](Cc2c[nH]c3ccccc23)NC(=O)[C@H](CC(=O)O)NC(=O)[C@H](CCC(N)=O)NC(=O)[C@H](Cc2cccc3ccccc23)NC(=O)[C@H](C(C)C)NC1=O
1.5 µM	CC[C@@H]1NC(=O)CNC(=O)[C@H](Cc2c[nH]c3ccccc23)NC(=O)[C@H](CC(=O)O)NC(=O)[C@H](CCC(N)=O)NC(=O)[C@H](Cc2c[nH]c3ccccc23)NC(=O)[C@H](C(C)C)NC(=O)[C@@H](NC(=O)[C@@H](NC(C)=O)[C@@H](C)CC)CSSC[C@@H](C(=O)N[C@H](C(N)=O)[C@@H](C)O)NC(=O)[C@H](CCCN=C(N)N)NC(=O)[C@H](Cc2c[nH]cn2)NC1=O (Ac-ICVWQDWG[Abu]HRCT-NH2; disulfide 2-12)
1.4 µM	CC[C@H](C)[C@H](NC(C)=O)C(=O)N[C@H]1CSSC[C@@H](C(=O)N[C@H](C(N)=O)[C@@H](C)O)NC(=O)[C@H](CCCN=C(N)N)NC(=O)[C@H](Cc2c[nH]cn2)NC(=O)[C@H](C)NC(=O)CNC(=O)[C@H](Cc2c[nH]c3ccccc23)NC(=O)[C@H](CC(=O)O)NC(=O)[C@H](CCC(N)=O)NC(=O)[C@H](C2Cc3ccccc3C2)NC(=O)[C@H](C(C)C)NC1=O
0.8 µM	CC[C@H](C)[C@H](NC(C)=O)C(=O)N[C@H]1CSSC[C@@H](C(=O)N[C@H](C(=O)O)[C@@H](C)O)NC(=O)[C@H](CCCN=C(N)N)NC(=O)[C@H](Cc2c[nH]cn2)NC(=O)[C@H](C)NC(=O)CNC(=O)[C@H](Cc2c[nH]c3ccccc23)NC(=O)[C@H](CC(=O)O)NC(=O)[C@H](CCC(N)=O)NC(=O)[C@H](Cc2csc3ccccc23)NC(=O)[C@H](C(C)C)NC1=O
68.3 µM	CC[C@H](C)[C@H](NC(C)=O)C(=O)N[C@H]1CSSC[C@@H](C(=O)N[C@H](C(N)=O)[C@@H](C)O)NC(=O)[C@H](CCCNC(=N)N)NC(=O)[C@H](Cc2cnc[nH]2)NC(=O)[C@H](Cc2cnc[nH]2)NC(=O)CNC(=O)[C@H](Cc2c[nH]c3ccccc23)NC(=O)[C@H](CC(=O)O)NC(=O)[C@H](CCC(N)=O)NC(=O)[C@H]([C@@H](C)O)NC(=O)[C@H](C(C)C)NC1=O
> 1000 µM	CC[C@H](C)[C@H](NC(C)=O)C(=O)N[C@H]1CSSC[C@@H](C(N)=O)NC(=O)[C@H](CCCN=C(N)N)NC(=O)[C@H](Cc2c[nH]cn2)NC(=O)[C@H](Cc2c[nH]cn2)NC(=O)CNC(=O)[C@@H](Cc2c[nH]c3ccccc23)NC(=O)[C@H](CC(=O)O)NC(=O)[C@H](CCC(N)=O)NC(=O)[C@H](C(C)C)NC(=O)[C@H](C(C)C)NC1=O
47.8 µM	CC[C@H](C)[C@H](NC(C)=O)C(=O)N[C@H]1CSSC[C@@H](C(=O)N[C@H](C(=O)O)[C@@H](C)O)NC(=O)[C@H](CCCN=C(N)N)NC(=O)[C@H](Cc2c[nH]cn2)NC(=O)[C@H](C)NC(=O)CNC(=O)[C@H](Cc2c[nH]c3ccccc23)NC(=O)[C@H](CC(=O)O)NC(=O)[C@H](CCC(N)=O)NC(=O)[C@H](CC2CCCCC2)NC(=O)[C@H](C(C)C)NC1=O
50.9 µM	CC[C@H](C)[C@H](NC(C)=O)C(=O)N[C@H]1CSSC[C@@H](C(=O)N[C@H](C(N)=O)[C@@H](C)O)NC(=O)[C@H](CCCN=C(N)N)NC(=O)[C@H](Cc2c[nH]cn2)NC(=O)[C@H](Cc2c[nH]cn2)NC(=O)CNC(=O)[C@H](Cc2c[nH]c3ccccc23)NC(=O)[C@H](CC(=O)O)NC(=O)[C@H](CCC(N)=O)NC(=O)[C@H](CO)NC(=O)[C@H](C(C)C)NC1=O
10.2 µM	CC[C@H](C)[C@H](NC(C)=O)C(=O)N[C@H]1CSSC[C@@H](C(=O)N[C@H](C(N)=O)[C@@H](C)O)NC(=O)[C@H](CCCN=C(N)N)NC(=O)[C@H](Cc2c[nH]cn2)NC(=O)[C@H](Cc2c[nH]cn2)NC(=O)CNC(=O)[C@H](Cc2c[nH]c3ccccc23)NC(=O)[C@H](CC(=O)O)NC(=O)[C@H](CCC(N)=O)NC(=O)[C@H](Cc2ccccc2)NC(=O)[C@H](C(C)C)NC1=O
12.4 µM	CC[C@H](C)[C@H](NC(C)=O)C(=O)N[C@H]1CSSC[C@@H](C(=O)N[C@H](C(N)=O)[C@@H](C)O)NC(=O)[C@H](CCCNC(=N)N)NC(=O)[C@H](Cc2cnc[nH]2)NC(=O)[C@H](C)NC(=O)CNC(=O)[C@H](Cc2c[nH]c3ccccc23)NC(=O)[C@H](CC(=O)O)NC(=O)[C@H](CCC(N)=O)NC(=O)[C@H](C(C)C)NC(=O)[C@H](C(C)C)NC1=O
1.4 µM	CC[C@H](C)[C@H](NC(C)=O)C(=O)N[C@H]1CSSC[C@@H](C(=O)N[C@H](C(=O)O)[C@@H](C)O)NC(=O)[C@H](CCCNC(=N)N)NC(=O)[C@H](Cc2cnc[nH]2)NC(=O)[C@H](C)NC(=O)CNC(=O)[C@H](Cc2c[nH]c3ccccc23)NC(=O)[C@H](CC(=O)O)NC(=O)[C@H](CCC(N)=O)NC(=O)[C@H](Cc2ccc3ccccc3c2)NC(=O)[C@H](C(C)C)NC1=O
0.5 µM	CC[C@H](C)[C@H](NC(C)=O)C(=O)N[C@H]1CSSC[C@@H](C(=O)N[C@H](C(N)=O)[C@@H](C)O)NC(=O)[C@H](CCCNC(=N)N)NC(=O)[C@H](Cc2c[nH]cn2)NC(=O)[C@H](C)NC(=O)CNC(=O)[C@H](Cc2c[nH]c3ccccc23)NC(=O)[C@H](CC(=O)O)NC(=O)[C@H](CCC(N)=O)NC(=O)[C@H](Cc2ccc3ccccc3c2)NC(=O)[C@H](C(C)C)NC1=O
1.1 µM	CC[C@H](C)[C@H](NC(C)=O)C(=O)N[C@H]1CSSC[C@@H](C(=O)N[C@H](C(=O)O)[C@@H](C)O)NC(=O)[C@H](CCCN=C(N)N)NC(=O)[C@H](Cc2c[nH]cn2)NC(=O)[C@H](C)NC(=O)CNC(=O)[C@H](Cc2c[nH]c3ccccc23)NC(=O)[C@H](CC(=O)O)NC(=O)[C@H](CCC(N)=O)NC(=O)[C@H](Cc2ccc(C(=O)c3ccccc3)cc2)NC(=O)[C@H](C(C)C)NC1=O

SMILES	IC50
CC[C@H](C)[C@H](NC(C)=O)C(=O)N[C@H]1CSSC[C@@H](C(=O)N[C@H](C(N)=O)[C@@H](C)O)NC(=O)[C@H](CCCNC(=N)N)NC(=O)[C@H](Cc2c[nH]cn2)NC(=O)[C@H](Cc2c[nH]cn2)NC(=O)CNC(=O)[C@H](Cc2c[nH]c3ccccc23)NC(=O)[C@H](CC(=O)O)NC(=O)[C@H](CCC(N)=O)NC(=O)[C@H](C(C)C)NC(=O)[C@H](C(C)C)NC1=O	32 µM

Source: ChEMBL document CHEMBL1139489, “Design and NMR characterization of active analogues of compstatin containing non-natural amino acids” (J Med Chem, 2005)
